From publication PMC9265830, “Purification and Identification of a Novel Angiotensin Converting Enzyme Inhibitory Peptide from the Enzymatic Hydrolysate of Lepidotrigla microptera” (Foods, 2022)
Entries after “also recorded” stand apart in the source; their conditions may differ. Where no end group is shown, it is not given here.

Assays:
ACE [1] = molecular target: T1, ACE (Homo sapiens, UniProt P12821); assay: Inhibitory kinetics study (Lineweaver–Burk plots); type: biochemical; conditions: for Vmax of the enzyme reaction: HHL 1-5 mM, Vmax without peptide 20 mM/min
Description: Different concentrations of ACE-inhibitory peptide (0, 60, and 120 μM) were mixed with various concentrations of HHL solution (1, 2, 3, 4 and 5 mM) and pre-incubated for 5 min at 37 °C. Then the reaction was initiated by adding 80 µL of ACE and terminated by adding 20 µL of 1 mol/L HCl. The Lineweaver–Burk plot of the reciprocal of the HHL concentration (1/[s]) and the HA production rate (1/[v]) were used to analyze the inhibitory kinetics of peptide.

[2] = Thermal stability of ACE inhibitory activity; type: physicochemical
Description: (§1) ACE-inhibitory activity was determined following the method of Cushman. The reaction system comprised a sample (10 μL), HHL (2.5 mM, 30 μL), and ACE solution (0.1 U/mL, 20 μL) in sodium borate buffer (pH 8.3, 0.3 M NaCl). The mixture of HHL and the sample was pre-incubated for 15 min at 37 °C before adding the ACE solution. The reaction was carried out for 40 min at 37 °C in a water bath and terminated by adding HCl (1 mol/L, 60 μL). Then 20 μL of the reaction mixture was injected into an HPLC system (Shimadzu, Japan) equipped with a C-18 column (150 × 4.6 mm, 5 μm). In order to detect the concentration of HA (hippuric acid), isocratic elution was performed for 25 min in 80% mobile phase A (0.05% Trifluoroacetic acid in H2O) and 20% mobile phase B (Acetonitrile) at a 0.8 mL/min flow rate, and the detection wavelength was 280 nm. The ACE-inhibitory activity was calculated according to the formula:ACE-inhibitory activity (%) = (A1 − A2)/A1(1) where A1 and A2 equal the peak areas of blank control and the sample, respectively.
The sample (0.2 mg/mL) was treated at various temperatures (20, 40, 60, 80, and 100 °C) for 1 h. After cooling the solution to indoor temperature (25 °C), the ACE inhibition activity was detected.

[3] = pH stability of ACE inhibitory activity; type: physicochemical; conditions: 0.2 mg/mL, 37 °C, 2 h, pH 3 to 11 (method: 2, 4, 6, 8, 10), readjusted to pH 7.0; read-out ACE inhibition
Description: as §1
The ACE-inhibitory peptide solution (0.2 mg/mL) was incubated at different pH levels (2, 4, 6, 8, and 10) at 37 °C for 2 h, and the pH value was adjusted by adding HCl (1 mol/L) and NaOH (1 mol/L). Before the ACE inhibition rate was determined, the pH value was adjusted to 7.0.

pepsin, pancreatin = assay: Simulated gastrointestinal digestion; type: in vitro ADME; conditions: 0.2 mg/mL; pepsin 0.05% pH 2.0 2 h 37 °C, then pancreatin 0.05% pH 7.5 2 h 37 °C; read-out ACE inhibition
Description: as §1
Simulated gastrointestinal digestion of ACE-inhibitory peptides was conducted following the method of Lai et al. with slight modifications. […]

ACE [4] = molecular target: T1, ACE; assay: ACE-inhibitory activity (HHL substrate, hippuric acid by HPLC); type: biochemical; conditions: ultrafiltration, Sephadex G-15 and prep-HPLC fractions; chemically synthesized peptides; read-out: IC50 (ACE inhibition) of fractions and synthesized peptides (converted)
Description: as §1

T1 sequence (P12821 30-1306, species assumed): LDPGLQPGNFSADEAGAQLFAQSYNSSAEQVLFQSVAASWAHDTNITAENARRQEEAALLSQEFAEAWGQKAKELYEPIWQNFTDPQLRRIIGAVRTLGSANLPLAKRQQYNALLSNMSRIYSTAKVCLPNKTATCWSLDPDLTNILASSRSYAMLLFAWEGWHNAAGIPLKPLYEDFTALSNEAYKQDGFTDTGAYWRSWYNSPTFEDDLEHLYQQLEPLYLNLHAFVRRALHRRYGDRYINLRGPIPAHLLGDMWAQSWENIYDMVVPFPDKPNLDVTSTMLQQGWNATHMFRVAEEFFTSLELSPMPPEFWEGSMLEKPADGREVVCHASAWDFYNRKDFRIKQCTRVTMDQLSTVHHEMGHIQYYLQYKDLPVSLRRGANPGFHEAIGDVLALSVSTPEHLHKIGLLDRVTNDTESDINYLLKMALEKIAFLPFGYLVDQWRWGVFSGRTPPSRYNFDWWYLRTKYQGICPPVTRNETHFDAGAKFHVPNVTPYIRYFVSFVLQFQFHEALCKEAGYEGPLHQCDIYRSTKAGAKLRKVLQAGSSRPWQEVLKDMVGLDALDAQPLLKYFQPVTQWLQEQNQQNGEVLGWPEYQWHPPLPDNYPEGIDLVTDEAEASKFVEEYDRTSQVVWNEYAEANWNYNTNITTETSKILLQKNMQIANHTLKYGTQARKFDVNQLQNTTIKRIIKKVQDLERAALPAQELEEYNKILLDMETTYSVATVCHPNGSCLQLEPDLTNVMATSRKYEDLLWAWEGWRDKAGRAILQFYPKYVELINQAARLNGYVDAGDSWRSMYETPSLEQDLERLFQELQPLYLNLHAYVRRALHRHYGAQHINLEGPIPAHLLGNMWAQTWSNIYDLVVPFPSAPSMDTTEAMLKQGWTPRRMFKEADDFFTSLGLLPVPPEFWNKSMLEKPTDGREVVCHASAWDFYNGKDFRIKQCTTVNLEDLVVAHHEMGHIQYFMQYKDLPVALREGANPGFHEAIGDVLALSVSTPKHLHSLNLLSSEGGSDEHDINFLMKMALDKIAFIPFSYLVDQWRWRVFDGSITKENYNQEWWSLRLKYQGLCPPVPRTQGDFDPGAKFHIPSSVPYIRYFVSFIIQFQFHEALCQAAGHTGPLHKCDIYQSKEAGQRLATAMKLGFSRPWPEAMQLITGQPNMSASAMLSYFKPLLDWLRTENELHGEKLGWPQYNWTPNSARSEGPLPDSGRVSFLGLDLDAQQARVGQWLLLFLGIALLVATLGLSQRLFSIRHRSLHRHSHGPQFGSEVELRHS

Compound	Vmax of the enzyme reaction (ACE [1]; 60 μM peptide)	Vmax of the enzyme reaction (ACE [1]; 120 μM peptide)	Inhibitory kinetic mechanism (ACE [1]; Lineweaver–Burk plot)	ACE-inhibitory activity after heat treatment ([2]; 0.2 mg/mL, 1 h, temperature above 60 °C (up to 100 °C), read-out ACE inhibition)	ACE-inhibitory rate after heat treatment ([2]; 0.2 mg/mL, 1 h, temperature range 20 to 60 °C, read-out ACE inhibition)	Stability of ACE-inhibitory activity (abstract summary) ([2]; temperatures (<100 °C) and pH values (3.0–11.0))	ACE-inhibitory activity after pH treatment [3]	Relative ACE inhibition activity before and after digestion (pepsin, pancreatin)	IC50 (ACE [4])
CC(C)C[C@H](NC(=O)CNC(=O)[C@H](C)NC(=O)[C@@H](NC(=O)[C@H](CC(C)C)NC(=O)[C@@H](N)CC(=O)O)[C@@H](C)O)C(=O)N[C@@H](CC(C)C)C(=O)N[C@@H](CCC(=O)O)C(=O)O [DLTAGLLE, Phe-Leu-Thr-Ala-Gly-Leu-Leu-Asp]	5 mM/min	2.78 mM/min	noncompetitive	slightly decreased	remained relatively stable	stable	maintained high ACE-inhibitory activity at all pH values	retained after gastrointestinal digestion; also recorded: essentially unchanged	
YLTLFLLT [YLTLFLLT, Tyr-Leu-Thr-Leu-Phe-Leu-Leu-Thr]									214 µM
